Source: article PMC11009625, “Antibiotic class with potent in vivo activity targeting lipopolysaccharide synthesis in Gram-negative bacteria” (Proceedings of the National Academy of Sciences of the …, 2024)
Like-named read-outs stand apart in the source and are kept apart here.

Test system: K. pneumoniae SSI #3010 (EN124)
Assay: Neutropenic mouse peritonitis model, K. pneumoniae
Assay type: in vivo, mice
Settings: single sc dose; for ED50: Klebsiella pneumoniae; for ED50 / 1-log effective dose, blood, K. pneumoniae / 2-log effective dose, blood, K. pneumoniae / 1-log effective dose, peritoneal fluid, K. pneumoniae / 2-log effective dose, peritoneal fluid, K. pneumoniae: modeled efficacy curves; for Efficacy against K. pneumoniae compared with ciprofloxacin (13 mg/kg): doses ≥50 mg/kg, mouse peritonitis
Description: PK and safety studies were done the Latvian Institute for Organic Synthesis (Riga, Latvia) and in vivo efficacy studies were done at Statens Serum Institut (Copenhagen, Denmark). Assays were done in accordance with the relevant permits at the respective sites (SI Appendix). For PK studies, plasma samples were taken from mice dosed subcutaneously and the samples were analyzed by UPLC/MS/MS. For in vivo efficacy studies, neutropenic mice were infected intraperitoneally with 10^6 bacteria and treated with subcutaneously with test compounds 1 h after infection. The mice were euthanized 4 h after treatment and serially diluted samples of blood and peritoneal fluid were plated onto blood agar plates. Complete experimental details available in SI Appendix.
Lantmännen) and water. The experimental procedures were performed in accordance with the guidelines of the European Community and local laws and policies (Directive 2010/63/EU), and all of the procedures were approved by Food and Veterinary Service, Riga, Latvia. […]
Bacterial strains and inoculum. E. coli EC 106-09 (EN122) and K. pneumoniae SSI #3010 (EN124) are clinical isolates from Denmark. Bacterial suspensions for inoculation of mice were prepared […]
at room temperature from fresh overnight cultures on 5% blood agar plates produced by SSI diagnostica (Copenhagen Denmark). The inoculum was prepared immediately before inoculation by suspending colonies in sterile 0.9% saline to an optical density of 0.13 at 540 nm, giving a density of 10^8 CFU/ml and further diluted in 0.9% saline to 2 x 10^6 CFU/ml before injecting into the mice. For each experiment, the size of the inoculum was determined by making ten-fold dilutions in 0.9% saline, of which 20 µl was plated on 5% blood agar plates with subsequent counting of colonies after incubation overnight at 35°C in ambient air.
Mice. Outbred female CD-1 mice 26-30 gram (Envigo, Netherlands) were housed at the animal facility at Statens Serum Institut. The temperature was 22 °C +/- 2 °C and the humidity was 55 +/- 10%. The mice were housed in individually ventilated type 3 macrolone cages with bedding from Tapvei. The air changes per hour were approximately 8-12 times (70-73 times per hours inside cages), and light/dark period was in 12-hours interval of 6 a.m.- 6 p.m./6 p.m – 6 a.m.
The mice had ad libitum access to domestic quality drinking water and food Teklad Global diet 2916C-Envigo) and occasionally peanuts and sunflower seeds (Køge Korn A/S). Further, the animals were offered Enviro-Dri nesting material and cardboard houses (Bio-serv).
Mouse peritonitis model. The mice were rendered neutropenic by injecting 0.5 mL cyclophosphamide solution, 200 mg/kg intraperitoneally at 4 days and 100 mg/kg at 1 day prior to inoculation. 1 h before inoculation, mice were treated orally with […] Nurofen (20 mg ibuprofen/mL corresponding to approximately 30 mg/kg) as a pain relief. Inoculation was performed by intraperitoneal injection of 0.5 ml of the bacterial suspension containing log 6
CFU. The mice were treated subcutaneously with 0.25 – 0.30 mL based on weight, in the neck region with a single dose of compound at 1 hour post inoculation. Mice were monitored for clinical signs of discomfort. 4 h after treatment the mice were anesthetized and blood was collected by heart puncture into EDTA tubes and thereafter mice were euthanized by cervical dislocation and peritoneal washes were performed by injecting 2 ml of sterile saline intraperitoneally, followed by gentle massage of the abdomen and opening the peritoneum to collect fluid. Full blood and peritoneal fluids were serially diluted (ten-fold dilutions) and 20 µl was plated on blood agar plates produced at the SSI diagniostica (Copenhagen, Denmark) with subsequent counting of colonies after incubation overnight at 35°C in ambient. All animal experiments were approved by the National Committee of Animal Ethics – Animal Experiment Inspectorate under the Danish Ministry of Justice.
Statistical analyses. […]

[1] = blood, read-out: ED50, blood, K. pneumoniae
[2] = peritoneal fluid, read-out: ED50, peritoneal fluid, K. pneumoniae

| SMILES | ED50 [1] [mg/kg] | ED50 [2] [mg/kg] | Efficacy against K. pneumoniae compared with ciprofloxacin (13 mg/kg) | 1-log effective dose, blood, K. pneumoniae (blood) [mg/kg] | 2-log effective dose, blood, K. pneumoniae (blood) [mg/kg] | 1-log effective dose, peritoneal fluid, K. pneumoniae (peritoneal fluid) [mg/kg] | 2-log effective dose, peritoneal fluid, K. pneumoniae (peritoneal fluid) [mg/kg] |
| --- | --- | --- | --- | --- | --- | --- | --- |
| Cc1cc(C#N)nc(N2CCN(S(=O)(=O)c3ccc(NC(=O)c4cc(CN5CC(CN)C5)ccc4N(C)S(C)(=O)=O)cc3)CC2)n1 [EBL-3647] | 21 | 21 | efficacy similar to ciprofloxacin | 21 | 27 | 22.8 | 37.3 |
| Cc1cc(C#N)nc(N2CCN(S(=O)(=O)c3ccc(NC(=O)c4cc(CNCCCN)ccc4N(C)S(C)(=O)=O)cc3)CC2)n1.Cl.Cl [EBL-3599] | 20.2 | 19.8 | efficacy similar to ciprofloxacin | 20.2 | 28 | 20.4 | 30.7 |
